# Measured values as given in paper PMC11267363, “Supramolecular Nanofibers Ameliorate Bleomycin‐Induced Pulmonary Fibrosis by Restoring Autophagy” (Advanced Science, 2024).
# Tests used:
# [1] = system: MRC-5 cells; assay: Cell migration, invasion and wound-healing assay; assay type: cell-based, human; conditions: MRC-5 cells stimulated by TGF-β1, peptide 50 µM, 24 h transwell, 48 h wound closure, n = 3
# Description: For wound healing, cell monolayers were scratched with pipette tip. Cells were incubated with or without 10 ng ml^−1 recombinant human TGF‐β1. Ac‐GFFY‐A2 (50 µM) or A2 (50 µM) was added to the medium 1 h behind to TGF‐β1 stimulation. Images were captured at 0 and 48 h after scratching, and the lesion area was measured with Image J software. Cell invasion assay was performed using transwell chambers (8‐µm pore size, Millipore). Chambers were pre‐coated with Matrigel (30 µg per well, BD). Cells were seeded into the chamber with MEM supplemented with 0.1% FBS, and the lower well was added MEM supplemented with 20% FBS. After incubated for 24 h, non‐invaded cells on the upside were removed with cotton swap, and invaded cells were fixed with 4% paraformaldehyde, stained with 0.5% crystal violet, and then photographed under a microscope. The crystal violet stain was eluted in alcohol and quantified at OD540 nm. […]
# MRC-5 cells were seeded on a 6-well plate at a density of 6×10^4 cells per well then cultured for 12 hours to adhere the walls. […] The cells were collected and centrifuged, finally the cellular uptake was measured by flow cytometry. […]
# Images were captured at 0 h and 48 h after scratching, and the lesion area was measured with Image J software. […] The crystal violet stain was eluted in alcohol and quantified at OD540 nm. […]
# [2] = biological target: T1, human TRB3 protein (Homo sapiens, UniProt Q96RU7); assay: Microscale thermophoresis (MST) binding to TRB3; conditions: Monolith NT.115, recombinant human TRB3, read-out: binding constant (KD)
# T1 construct: purchased Sino Biological 10731-H09B
# T1 sequence (Q96RU7 1-358): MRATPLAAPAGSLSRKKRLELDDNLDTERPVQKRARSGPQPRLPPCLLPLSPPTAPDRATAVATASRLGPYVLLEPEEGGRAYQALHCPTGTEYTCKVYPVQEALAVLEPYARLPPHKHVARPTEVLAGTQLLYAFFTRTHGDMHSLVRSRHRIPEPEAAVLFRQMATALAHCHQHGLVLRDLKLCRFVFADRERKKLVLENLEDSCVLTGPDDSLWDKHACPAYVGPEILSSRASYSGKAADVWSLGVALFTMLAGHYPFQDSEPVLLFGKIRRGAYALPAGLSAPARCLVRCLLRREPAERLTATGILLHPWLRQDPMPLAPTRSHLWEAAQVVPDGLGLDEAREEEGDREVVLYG
# Description: To determine the effects of the self‐assembly factor “Ac‐GFFY” on the secondary structure of the A2 peptide fragment, Circular dichroism (CD) and Fourier transform infrared (FTIR) measurements were performed. […] We subsequently assessed the binding affinity between Ac‐GFFY‐A2 or A2 peptides to the human TRB3 protein or bovine serum albumin (BSA) using microscale thermophoresis (MST) assay, with BSA serving as the control group. […] Therefore, we labeled the peptide with the fluorescence group 7‐nitro‐1,2,3‐benzoxadiazole (NBD) to determine the cellular uptake via flow cytometer. The NBD‐labeled peptide was incubated with both of normal and activated MRC‐5 cells for 4 h, respectively. […] Collectively, under the action of supramolecular self‐assembly, the peptide assemblies with stable secondary conformation can not only be effectively absorbed by MRC‐5 cells but also have the potential to interfere with TRB3/p62 PPIs.
# HR‐MS (Varian QFT‐ESI) was used to characterize the molecular weight of compounds. TEM (JEM100CXII) was performed at the Tecnai G2 F20 system, operating at 100 kV. Circular dichroism (CD) spectrum was obtained by a BioLogic (MOS‐450) system. Dynamic light scattering was measured by a ZETAPALS/BI‐200SM (BROOKHAVEN) system. Confocal laser scanning microscopy (CLSM) was measured by Leica TCS SP‐5. Flow cytometry (BD, FACS) was used to detect the cellular uptake. […]
substance,measurement,setting,value
Ac-GFFYGGWLTRLLQTK-OH [Ac-GFFY-A2],rate of migration and invasion,[1],decline in the rate of migration and invasion
same,Kd,[2],~19.1 µM
